Experimental data from the supplement of paper PMC10307832.

Tests used:
Test in all cases: relative viability (nuclei count vs DMSO), 5 days (fraction); higher = more cells survive
Staurosporine + Olaparib = compound: CN[C@@H]1C[C@H]2O[C@@](C)([C@@H]1OC)n1c3ccccc3c3c4c(c5c6ccccc6n2c5c31)C(=O)NC4 [Staurosporine] + O=C(c1cc(Cc2n[nH]c(=O)c3ccccc23)ccc1F)N1CCN(C(=O)C2CC2)CC1 [Olaparib] (partner 8 µM)
Outline: (§1)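 For relative viability, nuclei counts in treated wells were divided by those in vehicle wells. Lung cancer cell lines had been pin-tool dosed in 1536-well plates the day after seeding and cultured for 5 days, then fixed and stained in one step (final 0.05% Triton X-100, 1% formaldehyde, 1 ug/ml Hoechst) and imaged at 4×. Doses were one drug alone or a fixed anchor-drug dose plus five library-drug doses (not always all listed) in √10 steps, and values are duplicate-plate medians.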

[1] = compound: CN[C@@H]1C[C@H]2O[C@@](C)([C@@H]1OC)n1c3ccccc3c3c4c(c5c6ccccc6n2c5c31)C(=O)NC4 [Staurosporine] + CC(=O)Nc1cccc(-n2c(=O)n(C3CC3)c(=O)c3c(Nc4ccc(I)cc4F)n(C)c(=O)c(C)c32)c1 [Trametinib] (partner 0.02 µM)
Outline: as §1

Sulindac + Navitoclax = compound: CC1=C(CC(=O)O)c2cc(F)ccc2/C1=C\c1ccc([S+](C)[O-])cc1 [Sulindac] + CC1(C)CCC(c2ccc(Cl)cc2)=C(CN2CCN(c3ccc(C(=O)NS(=O)(=O)c4ccc(N[C@H](CCN5CCOCC5)CSc5ccccc5)c(S(=O)(=O)C(F)(F)F)c4)cc3)CC2)C1 [Navitoclax] (partner 0.5 µM)
Outline: as §1

Sulindac + Alpelisib = compound: CC1=C(CC(=O)O)c2cc(F)ccc2/C1=C\c1ccc([S+](C)[O-])cc1 [Sulindac] + Cc1nc(NC(=O)N2CCC[C@H]2C(N)=O)sc1-c1ccnc(C(C)(C)C(F)(F)F)c1 [Alpelisib] (partner 2 µM)
Outline: as §1

Cell Line | relative viability (Staurosporine + Olaparib; first compound 0.005 µM) | relative viability (Staurosporine + Olaparib; first compound 0.05 µM) | relative viability (Staurosporine + Olaparib; first compound 0.1581 µM) | relative viability (Staurosporine + Olaparib; first compound 0.5 µM) | relative viability ([1]; first compound 0.005 µM) | relative viability ([1]; first compound 0.05 µM) | relative viability ([1]; first compound 0.1581 µM) | relative viability ([1]; first compound 0.5 µM) | relative viability (Sulindac + Navitoclax; first compound 0.08 µM) | relative viability (Sulindac + Navitoclax; first compound 0.253 µM) | relative viability (Sulindac + Navitoclax; first compound 0.8 µM) | relative viability (Sulindac + Navitoclax; first compound 2.53 µM) | relative viability (Sulindac + Navitoclax; first compound 8 µM) | relative viability (Sulindac + Alpelisib; first compound 0.08 µM) | relative viability (Sulindac + Alpelisib; first compound 0.253 µM) | relative viability (Sulindac + Alpelisib; first compound 0.8 µM) | relative viability (Sulindac + Alpelisib; first compound 2.53 µM) | relative viability (Sulindac + Alpelisib; first compound 8 µM) | relative viability (Staurosporine + Olaparib; first compound 0.01581 µM) | relative viability ([1]; first compound 0.01581 µM)
201T | 0.834 | 0.749 | 0.581 | 0.537 | 0.769 | 0.703 | 0.58 | 0.485 | 1.19 | 1.15 | 1.27 | 1.16 | 1.23 | 0.967 | 1.04 | 1.02 | 0.999 | 1.02 | – | –
A549 | 0.0788 | 0.126 | 0.034 | 0.0268 | – | – | – | – | 1.63 | 1.29 | – | 1.21 | 1.46 | 0.866 | 1.04 | – | 0.758 | 0.87 | 0.0424 | –
A-427 | 0.694 | 0.284 | 0.189 | 0.139 | 0.521 | 0.247 | 0.121 | 0.117 | 1.07 | 0.94 | 0.985 | 0.926 | 1.04 | 1.03 | 1.08 | 0.534 | 1.09 | 1.11 | 0.482 | 0.439
ABC-1 | 0.429 | 0.564 | 0.211 | 0.213 | – | – | – | – | – | – | – | – | – | 1.25 | 1.02 | 0.811 | 0.861 | 1 | 0.289 | –
BEN | 0.976 | 0.641 | 0.514 | 0.362 | 1.21 | 0.827 | 0.729 | 0.439 | 0.0725 | 0.0631 | 0.065 | 0.0775 | 0.0638 | 1.09 | 1.22 | 0.831 | 1 | 1.15 | 0.799 | 1.2
CAL-12T | 0.441 | 0.252 | 0.148 | 0.163 | 0.19 | 0.0965 | 0.126 | 0.083 | 1.67 | 1.35 | 0.969 | 1.38 | 1.42 | – | 1.37 | 0.999 | 1.31 | 1.54 | 0.253 | 0.145
COR-L23 | 0.216 | 0.164 | 0.141 | 0.0662 | 0.325 | 0.0689 | 0.0665 | 0.0391 | 1.19 | 1.09 | – | 0.964 | 1.3 | 0.871 | 0.867 | – | 0.714 | 1.13 | 0.189 | 0.148
COR-L 105 | 0.562 | 0.326 | 0.386 | 0.26 | 0.427 | 0.274 | 0.234 | 0.237 | 0.591 | 0.987 | 0.901 | 0.722 | 0.962 | 0.826 | 0.818 | 0.673 | 0.949 | 1.29 | 0.401 | 0.357
Calu-6 | 0.483 | 0.201 | 0.106 | 0.092 | – | – | – | – | 1.1 | 1.04 | 0.627 | 0.756 | 1.21 | 1.06 | 1.09 | 0.774 | 1.08 | 1.23 | 0.294 | –
ChaGo-K-1 | 0.43 | 0.342 | 0.232 | 0.243 | 0.911 | 0.796 | 0.579 | 0.455 | 1.01 | 0.925 | 1.21 | 0.897 | 1.56 | – | – | – | – | – | – | –
EBC-1 | 0.485 | 0.165 | 0.159 | 0.149 | – | – | – | – | 0.377 | 0.387 | 0.36 | 0.344 | 0.431 | 0.993 | 0.944 | 0.848 | 0.79 | 0.887 | 0.184 | –
EKVX | 0.562 | 0.272 | 0.216 | 0.13 | 0.224 | 0.143 | 0.169 | 0.12 | 0.976 | 0.969 | 0.889 | 1.04 | 1.07 | 0.819 | 0.824 | 0.721 | 0.997 | 1.04 | 0.392 | 0.184
EMC-BAC-2 | 0.245 | 0.172 | 0.177 | 0.19 | 0.42 | 0.219 | 0.253 | – | 1.49 | 1.21 | 0.776 | 1.19 | 1.23 | 0.854 | 0.791 | 0.637 | 0.767 | 0.87 | 0.162 | 0.225
EPLC-272H | 0.41 | 0.139 | 0.0846 | 0.0704 | 0.291 | 0.123 | 0.067 | 0.0425 | 1.16 | – | 0.828 | 1.23 | 1.27 | 0.759 | – | 0.618 | 0.985 | 1.03 | 0.148 | 0.15
H3255 | 0.447 | 0.28 | 0.24 | 0.155 | 0.48 | 0.236 | 0.197 | 0.141 | 0.54 | 0.685 | 0.551 | 0.512 | 0.612 | 0.805 | 0.768 | 0.537 | 0.747 | 0.898 | 0.315 | 0.321
